Data as given in US11578055B2, “Triazacyclododecansulfonamide (“TCD”)-based protein secretion inhibitors” (KEZAR LIFE SCIENCES, priority 2018, dated 2023).
Like-named read-outs stand apart in the source and are kept apart here.

What was measured:
[1] = In Vitro Microsome Stability Assay (mouse); type: in vitro ADME
Outline: (§1)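 The value reported is the percentage of parent left after 30 min, calculated from analyte/IS peak-area ratios relative to time zero by LC-MS/MS. Incubations ran at 37° C in 0.1 M potassium phosphate with NADPH and microsomes (stock 20 mg/mL), with compound added from a 0.25 mM DMSO stock. Acetonitrile containing IS stopped the reactions.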

[2] = system: full length TNFα (amino acids 1-233) fused to Gaussia Luciferase; assay: Dox Induced TNFα-FL-Gluc Assay; type: cell-based; conditions: 24 hr, read-out: 24 hr Dox Inducible TNFaFLGluc 293FRT/TO: Mean IC50
Outline: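 Compounds diluted in DMSO/medium with doxycycline were incubated at 37° C, 5% CO2 with 293 T-REx cells stably carrying a Tet-regulated TNFα(1-233)-Gaussia luciferase construct. Data for structures drawn without stereochemistry refer to stereoisomer mixtures.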

[3] = In Vitro Microsome Stability Assay (rat); type: in vitro ADME
Outline: as §1

[4] = In Vitro Microsome Stability Assay (human); type: in vitro ADME
Outline: as §1

[5] = In Vitro Microsome Stability Assay (monkey); type: in vitro ADME
Outline: as §1

[6] = system: PD1 signal sequence plus 10 amino acids fused to Gaussia Luciferase (PD1-ss+10aa/Gaussia Luciferase); assay: Dox Induced PD1-ss-Gluc Assay; type: cell-based; conditions: 24 hr, read-out: 24 hr Dox Inducible PD1ssGluc 293FRT/TO: Mean IC50
Outline: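 Compound dilutions in DMSO/media containing doxycycline were applied to a stable, inducible 293 T-REx line carrying the luciferase fusion, then incubated at 37 °C, 5% CO2. Where stereochemistry is not drawn, values relate to isomer mixtures.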

[7] = system: multiple myeloma cell line U266B1; assay: U266 Cell Viability Assay; type: cell-based, human; conditions: Homo sapiens, U-266, 48 hr
Outline: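 Viability was measured by CellTiter-Glo luminescence after 48 h compound exposure at 37° C, 5% CO2. The cells were U266B1 multiple myeloma cells grown in RPMI 1640 plus 10% FBS. Where stereochemistry is not shown, values apply to the stereoisomer mixture.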

[8] = system: multiple myeloma cell line NCl-H929; assay: H929 Cell Viability Assay; type: cell-based, human; conditions: Homo sapiens, NCI-H929, 48 h
Outline: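 Viability was determined by CellTiter-Glo luminescence after a 48 h, 37 °C exposure of NCI-H929 cells to serial compound dilutions in medium containing 10% FBS. Where stereochemistry is not shown, values refer to a mix of stereoisomers.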

[9] = system: full length PD1 (amino acids 1-288) fused to Firefly Luciferase; assay: Dox Induced PD1-FL-Gluc Assay; type: cell-based; conditions: 24 hr, 293FRT/TO; read-out: 24 hr Dox Inducible PD1FLFluc 293FRT/TO: Mean IC50
Excerpt: FIp-In 293 T-REx™ cells were transfected with pcDNA™5/FRT/TO plasmid inserted with cDNA encoding Firefly Luciferase fused to the 3′ end of cDNA encoding full length PD1 (amino acids 1-288). Transfected cells were selected for resistance to the selectable markers Hygromycin and Blasticidin to create a stable cell line that contained the PD1-FL/Firefly Luciferase cDNA insert whose expression was regulated under the T-REx™ system. The day before assay, cells were trypsinized and plated in 384-well tissue culture plates. The next day, compound dilutions in DMSO/media containing doxycycline were added to the wells and incubated at 37° C., 5% CO2.
For chemical structures that include one or more stereoisomers, but are illustrated without indicating stereochemistry, the assay data refers to a mixture of stereoisomers.

[10] = system: full length IL-2 (amino acids 1-153) fused to Gaussia Luciferase; assay: Dox Induced IL2-FL-Gluc Assay; type: cell-based; conditions: 24 hr, Dox inducible, 293FRT/TO cells; read-out: 24 hr Dox Inducible IL2FLGluc 293FRT/TO: Mean IC50
Outline: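 Compounds in DMSO/media with doxycycline were added to cells plated the previous day and incubated at 37° C, 5% CO2. Cells: stable Flp-In 293 T-REx line, Dox-regulated expression of IL-2 (aa 1-153) fused at its C-terminus to Gaussia luciferase.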

[11] = system: HER3 signal sequence plus 4 amino acids fused to Gaussia Luciferase (HER3-ss+4aa/Gaussia Luciferase); assay: Dox Induced HER3-ss-Gluc Assay; type: cell-based; conditions: 24 hr, doxycycline induced, Flp-In 293 T-REx cells; read-out: 24 hr Dox Inducible Her3(ss + 4) Gluc 293FRT/TO: Mean 1050
Outline: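 Stable Flp-In 293 T-REx line expressing HER3 signal sequence+4aa/Gaussia luciferase under doxycycline-inducible control. Cells plated the day before; compound dilutions added in doxycycline-containing medium and incubated at 37° C, 5% CO2.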

[12] = mouse liver microsomes, 30 min w/ NADPH
[13] = rat liver microsomes, 30 min w/ NADPH
[14] = human liver microsomes, 30 min w/ NADPH
[15] = monkey liver microsomes, 30 min w/ NADPH

SMILES | Liver Microsome Stability-% Left after 30 min w/ NADPH (%) Mouse ([1]; mouse, 30 min, NADPH) | IC50 ([2]; 293FRT/TO) | Liver Microsome Stability-% Left after 30 min w/ NADPH (%) Rat ([3]; rat, 30 min, NADPH) | Liver Microsome Stability-% Left after 30 min w/ NADPH (%) Human ([4]; human, 30 min, NADPH) | Liver Microsome Stability-% Left after 30 min w/ NADPH (%) Monkey ([5]; monkey, 30 min, NADPH) | IC50 ([6]; 293FRT/TO) | EC50 ([7]; U266, read-out: 48 hr U266 Viability Celltiter-Glo: Mean EC50) | EC50 ([8]; H929, read-out: 48 hr H929 Viability Celltiter-Glo: Mean EC50) | IC50 [9] | Liver Microsome Stability-% Left after 30 min w/ NADPH (%) Mouse [1, 12] | IC50 ([2]; Dox inducible, 293FRT/TO cells) | Liver Microsome Stability-% Left after 30 min w/ NADPH (%) Rat [3, 13] | IC50 [10] | Liver Microsome Stability-% Left after 30 min w/ NADPH (%) Human [4, 14] | IC50 [11] | Liver Microsome Stability-% Left after 30 min w/ NADPH (%) Monkey [5, 15] | IC50 ([6]; Dox inducible, 293FRT/TO cells) | EC50 ([7]; U266, Celltiter-Glo) | EC50 ([8]; H929, Celltiter-Glo)
C=C1CN(S(=O)(=O)c2ccc(C)cc2)CCCN(CC2CCCCC2)CCCN(S(=O)(=O)c2ccc(C)cc2)C1 [A2] | 0.09% | > 25000 nM | 0.59% | 0.04% | 0.09% | 345 nM | > 25000 nM | 10100 nM | 807 nM | – | – | – | – | – | – | – | – | – | –
COc1cc(F)ccc1N1CCN(S(=O)(=O)N2CCCN([C@@H](C)C3CCCCC3)CCCN(S(=O)(=O)c3ccc(N(C)C)cc3)C[C@H](C)C2)CC1 [A203] | – | – | – | – | – | – | – | – | – | 80.3% | 434 nM | 78.7% | 30.4 nM | 83.4% | 34.1 nM | 77.9% | 14.8 nM | > 25000 nM | 396 nM
C[C@H]1CN(S(=O)(=O)c2ccc(N(C)C)cc2)CCCN(CC2CCC(F)CC2)CCCN(S(=O)(=O)N2CCc3cc(Cl)ccc3C2)C1 (stereo partly drawn) [A204, 4-{[(3S)-5-[(6-chloro-1,2,3,4-tetrahydroisoquinolin-2-yl)sulfonyl]-9-[(4-fluorocyclohexyl)methyl]-3-methyl-1,5,9-triazacyclododecan-1-yl]sulfonyl}-N,N-dimethylaniline] | – | – | – | – | – | – | – | – | – | 62.6% | 982 nM | 58.3% | 158 nM | 48.4% | 134 nM | 49.7% | 58.4 nM | > 25000 nM | 1490 nM
C[C@H]1CN(S(=O)(=O)c2ccc(N(C)C)cc2)CCCN([C@@H](C)c2ccccc2)CCCN(S(=O)(=O)N2CCc3ccccc3C2)C1 [A205, N,N-dimethyl-4-{[(3S)-3-methyl-9-[(1 S)-1-phenylethyl]-5-(1,2,3,4-tetrahydroisoquinoline-2-sulfonyl)-1,5,9-triazacyclododecan-1-yl]sulfonyl}aniline] | – | – | – | – | – | – | – | – | – | 38.9% | 1810 nM | 38.7% | 305 nM | 37.2% | 230 nM | 31.7% | 129 nM | > 25000 nM | 2360 nM
C[C@H]1CN(S(=O)(=O)c2ccc(N(C)C)cc2)CCCN(CC2CCCCC2)CCCN(S(=O)(=O)N2CCN(c3ccc(F)cc3Cl)CC2)C1 [A206, 4-{[(3S)-5-{[4-(2-chloro-4-fluorophenyl)piperazin-1-yl]sulfonyl}-9-(cyclohexylmethyl)-3-methyl-1,5,9-triazacyclododecan-1-yl]sulfonyl}-N,N-dimethylaniline] | – | – | – | – | – | – | – | – | – | 84.3% | 395 nM | 80.5% | 39 nM | 54.7% | 38.2 nM | 65% | 17.4 nM | > 25000 nM | 657 nM
COc1cc(F)ccc1N1CCN(S(=O)(=O)N2CCCN([C@@H](C)C3CCCCC3)CCCN(S(=O)(=O)c3ccc(N(C)C)cc3)C[C@H](C)C2)C[C@H]1C [A207, 4-{[(3S)-9-[(1 S)-1-cyclohexylethyl]-5-{[(3 R)-4-(4-fluoro-2-methoxyphenyl)-3-methylpiperazin-1-yl]sulfonyl}-3-methyl-1,5,9-triazacyclododecan-1-yl]sulfonyl}-N,N-dimethylaniline] | – | – | – | – | – | – | – | – | – | 84.3% | 221 nM | 98.8% | 10.6 nM | 62.7% | 18 nM | 63.0% | 7.93 nM | > 25000 nM | 106 nM
COc1ccc([C@@H]2CCCN(S(=O)(=O)N3CCCN(CC4CCCCC4)CCCN(S(=O)(=O)c4ccc(N(C)C)cc4)C[C@H](C)C3)C2)cc1 [A208, 4-{[(3S)-9-(cyclohexylmethyl)-5-{[(3S)-3-(4-methoxyphenyl)piperidin-1-yl]sulfonyl]-3-methyl-1,5,9-triazacyclododecan-1-yl]sulfonyl}-N,N-dimethylaniline] | – | – | – | – | – | – | – | – | – | 51.8% | > 25000 nM | 68.9% | 616 nM | 23.3% | 428 nM | 37.5% | 343 nM | > 25000 nM | > 25000 nM
COc1cccc([C@@H]2CCCN(S(=O)(=O)N3CCCN(CC4CCCCC4)CCCN(S(=O)(=O)c4ccc(N(C)C)cc4)C[C@H](C)C3)C2)c1 [A209] | – | – | – | – | – | – | – | – | – | 31.8% | > 25000 nM | 44.7% | 673 nM | 22.6% | 498 nM | 45.7% | 327 nM | > 25000 nM | > 25000 nM
COc1ccccc1[C@@H]1CCCN(S(=O)(=O)N2CCCN(CC3CCCCC3)CCCN(S(=O)(=O)c3ccc(N(C)C)cc3)C[C@H](C)C2)C1 [A210] | – | – | – | – | – | – | – | – | – | 76.0% | > 25000 nM | 54.6% | 447 nM | 47.4% | 343 nM | 55.4% | 203 nM | > 25000 nM | > 25000 nM
CN(C)c1ccc(S(=O)(=O)N2CCCN(CC3CCCCC3)CCCN(S(=O)(=O)N3CCc4cc(Cl)ccc4C3)C[C@H]3CC[C@@H]32)cc1 [B22, 4-{[(1S,12R)-10-[(6-chloro-1,2,3,4-tetrahydroisoquinolin-2-yl]sulfonyl]-6-(cyclohexylmethyl)-2,6,10-triazabicyclo[10.2.0]tetradecan-2-yl]sulfonyl}-N,N-dimethylaniline] | – | – | – | – | – | – | – | – | – | 8.31% | 519 nM | 10.1% | 80.5 nM | 1.77% | 57.8 nM | 1.77% | 31.3 nM | > 25000 nM | 1650 nM
